Source: patent US6004905A, “Hyperabas: biologically active abscisic acid analogs with unsaturated carbon substituents at the 8'-methyl or 9'-methyl carbon atoms” (National Research Council of Canada, priority 1998, dated 1999)
Where two headings read alike, the source gives them in different places.

Key:
rice seedling leaves = settings: Nakano et al. 1995; cited from earlier work
[1] = system: stomatal opening of spiderwort; settings: Nakano et al. 1995, cited from earlier work
excised wheat embryos = test: Wheat embryo germination inhibition; format: in vivo, Triticum aestivum L. cv. Clark's Cream; settings: in vivo
Procedure: Grains of soft white wheat (Triticum aestivum L. cv. Clark's Cream) were used. For bioassay, embryos with some adhering endosperm and pericarp attached were cut from the grains with a razor blade. Analogs were prepared by dissolving into a minimal amount of DMSO to prepare a 0.1 M solution, and then diluted with […], pH 5.8, to 0.01, 0.1, 1, 10 and 100 μM. For each analog concentration six replicate germination assays were conducted on 10 embryos each at 30° C. Embryos were incubated in Petri dishes (100×15 mm) containing 6 ml solution.

[2] = system: suspension-cultured corn cells (var. Black Mexican Sweet); test: Growth inhibition of suspension-cultured corn cells; format: cell-based, corn (maize); settings: four days
[3] = system: ABA-responsive cor6.6 promoter; test: ABA-inducible gene expression (GUS activity) in transgenic tobacco seedlings containing Pcor6.6-GUS; format: in vivo, transgenic tobacco (promoter from Arabidopsis thaliana); settings: 24 hours (FIG. 15)
Excerpt: The results shown are an average of duplicate assays on samples containing 34 seedlings.
The results shown are an average of duplicate samples containing cotyledons from 34 seedlings.

α-amylase activity = settings: Nakano et al. 1995; cited from earlier work
lettuce seed = settings: Nakano et al. 1995; cited from earlier work
[4] = background; cited from earlier work
[5] = system: suspension-cultured corn cells; settings: Balsevich et al 1994; cited from earlier work
[6] = system: Interior spruce seedlings; test: Gas exchange of spruce seedlings; format: in vivo; settings: optimum conditions; longer periods at higher concentrations (FIGS. 19-21)
Excerpt: (§1) The ABA analog was applied as a spray-root drench that stimulated application through a nursery irrigation system. Seedlings with intact root-soil plugs were placed in a container, and ABA analog treatments were applied as a top drench. Treated seedlings were kept in the large container where the treatment flow-through was allowed to be re-absorbed into the plugs over a two day period. This ensured that all of the treatment was taken up by the root plugs and was available to seedlings. During testing, root-soil plugs were kept intact, enabling ABA analog treatments to be retained in close contact with the root system.
For this testing program, ABA analog #365 was applied at 10^-4, […] and 10^-3 M concentrations. Analogs were dissolved in an acetone solution (@ 1%) to prepare ABA analog treatments. In addition, there was a control treatment of acetone only @ 1%. The analog treatments were applied one time, two days before the start of experimental measurements. […]
Gas exchange parameters (net photosynthesis (Pn), needle conductance (gwv), water use efficiency-not reported) were determined on the seedlings treated with the ABA analog at each concentration (n=8). […] Gas exchange parameters were assessed 9 times across the first 20 days of the measurement period. Thereafter, gas exchange parameters were periodically assessed at 5 times from day 20 until the 52nd day of the measurement period.

[7] = system: Interior spruce seedlings; test: Growth of transplanted spruce seedlings; format: in vivo
[8] = system: Interior spruce seedlings; test: Drought avoidance of transplanted spruce seedlings; format: in vivo
Excerpt: as §1
For this testing program, ABA analog #365 was applied at 10^-4, […] and 10^-3 M concentrations. Analogs were dissolved in an acetone solution (@ 1%) to prepare ABA analog treatments. In addition, there was a control treatment of acetone only @ 1%. The analog treatments were applied one time, two days before the start of experimental measurements. Each seedling received approximately 20 ml of either an analog or a control solution.
Just after treatment application, seedlings (n=75) were put through a rapid eight to fifteen day drought. Seedlings were watered to saturation during ABA analog application. After 24 to 48 hours, when all of the ABA analog solution was absorbed by the seedling root plug, root systems were enclosed in a plastic bag and placed in a darkened chamber with the shoot systems exposed to the above described controlled environment conditions. Seedlings were allowed to dry out through shoot transpiration. Gas exchange parameters (Pn, and gwv) of seedlings (n=8) from each treatment were measured during each daylight period. At each gas exchange measurement time, seedlings were measured with a pressure chamber to determine .psi., Changes in gas exchange parameters and seedling water balance were determined over time.
A study was conducted to determine how the ABA analog influenced seedling response to potentially lethal soil drought. It was hypothesized that ABA analogs limit water use and delay deleterious physiological conditions in seedlings under limited soil water availability. The ABA analog would allow seedlings to avoid a potentially lethal drought stress to survive and have normal morphological development.
Just after treatment application, seedlings (n=75) were put through a rapid drought. Over the drought, seedlings were measured with a pressure chamber to determine .psi..

Compound: CC[C@@]1(C)CC(=O)C=C(C)[C@]1(O)/C=C/C(C)=C\C(=O)O [(+)-8'-methyl ABA]
- activity in elongation of rice seedling leaves (rice seedling leaves): more active than (+)-ABA
- activity in stomatal opening [1]: more active than (+)-ABA
- activity in stomatal opening ([1]; listed as 8'-methyl analog): only slightly weaker than ABA
- germination inhibitory activity, wheat embryos (in words) (excised wheat embryos): more active than (+)-ABA
- growth inhibition activity (comparison in words) [2]: comparable to that produced by (+)-ABA
- fold weaker than ABA as inducer of GUS [3]: about 3 fold
- blocking of GA3 stimulated α-amylase activity (α-amylase activity): nearly as active as (+)-ABA
- lettuce seed germination inhibition (lettuce seed): more active than (+)-ABA

Compound: CC(=C/C(=O)O)/C=C/[C@]1(O)[C@@]2(C)CO[C@]1(C)CC(=O)C2 [Phaseic acid, phaseic acid]
- activity in most assays [4]: little or no activity in most assays
- shift (elevation) in pH of the medium (literature) [5]: not produced by PA

Compound: Methyl 8'-methylene ABA [PBI-365]
- duration of reduction in gas exchange capability [6]: one to three
- effect on seedling growth ([7]; moderate and severe drought conditions): no definitive effect on seedling growth
- effect on seedling growth ([7]; near lethal drought conditions): positive influence on growth
- long term effects on growth ([7]; optimum soil moisture conditions (FIG. 18)): no long term negative effects on growth
- drought avoidance capability, dependence on treatment concentration ([8]; FIG. 17): improved with higher treatment concentrations
- needle conductance ([8]; drought conditions): reduction in needle conductance
- seedling water balance ([8]; drought conditions): improved seedling water balance under drought conditions
- drought avoidance capability ([8]; range of drought conditions): excellent drought avoidance capability
